Assay results: patent US20090162313A1, “High-Molecular Weight Conjugate of Podophyllotoxins” (priority 2006, published 2009)

How the values were obtained:
[1] = Relative body weight of tumor-bearing mice, Test Example 3; assay type: in vivo, mouse; conditions: 90 mg/kg once i.v., female CDF1 mice
Procedure: (§1) Mouse colon cancer, Colon 26, maintained by serial subcutaneous subculture in mice, was minced into about 2-mm square fragments, and the fragments were subcutaneously transplanted on the dorsal part of female CDF1 mice with a trocar. […] The control group means a group to which the drug was not administered. Compound 1 was dissolved in a 5% glucose solution for injection and used. As for […] injection (manufactured by Nippon Kayaku Co., Ltd.) was diluted with a 5% glucose solution for injection and used. After the administration, the major axis (L mm) and the minor axis (W mm) of the tumor were measured using a caliper, and the tumor volume was calculated by the formula: (L×W^2)/2. […] The changes of the body weight during this period of time is also shown in Table 1 as the relative body weight based on the body weight on the day of administration.

[2] = test system: Mouse colon cancer, Colon 26; test: Antitumor effect of compound 1, subcutaneously transplanted tumor, relative tumor volume; assay type: in vivo; conditions: 90 mg/kg once i.v., female CDF1 mice
Procedure: as §1

[3] = Relative body weight of tumor-bearing mice, Test Example 4; assay type: in vivo, mouse; conditions: 15 mg/kg i.v. for 5 consecutive days (total 75 mg/kg), female CDF1 mice
Procedure: (§2) Mouse colon cancer, Colon 26, maintained by serial subcutaneous subculture in mice, was minced into about 2 mm-square fragments, and the fragments were transplanted subcutaneously on the dorsal part of female CDF1 mice with a trocar. […] The control group means a group to which the drug was not administered. POD, purchased from Sigma-Aldrich Company, was diluted with dimethylsulfoxide and a 5% glucose solution for injection and administered for 5 consecutive days from the administration initiation day. After the administration, the major axis (L mm) and the minor axis (W mm) of the tumor were measured using a caliper, and the tumor volume was calculated by the formula: (L×W^2)/2. […] The changes of the body weight during this period of time is also shown in Table 2 as the relative body weight based on the body weight on the day of administration.

[4] = test system: Mouse colon cancer, Colon 26; test: Antitumor action of compounds 2 and 3, subcutaneously transplanted tumor, relative tumor volume; assay type: in vivo; conditions: 15 mg/kg i.v. for 5 consecutive days (total 75 mg/kg), female CDF1 mice
Procedure: as §2

[5] = day 0 after administration initiation day
[6] = day 3 after administration initiation day
[7] = day 5 after administration initiation day
[8] = day 8 after administration initiation day

COc1cc([C@@H]2c3cc4c(cc3[C@@H](O[C@@H]3O[C@@H]5CO[C@@H](C)O[C@H]5[C@H](O)[C@H]3O)[C@H]3COC(=O)[C@H]23)OCO4)cc(OC)c1O [ETP, etoposide]
Relative body weight ([1]; day 0 after administration): 1.00
Relative body weight ([1]; day 4 after administration): 0.87
Relative body weight ([1]; day 8 after administration): 0.97
Relative tumor volume ([2]; day 0 after administration): 1.00
Relative tumor volume ([2]; day 4 after administration): 1.17
Relative tumor volume ([2]; day 8 after administration): 3.79

COc1cc([C@@H]2c3cc4c(cc3[C@H](O)[C@H]3COC(=O)[C@H]23)OCO4)cc(OC)c1OC [POD, podophyllotoxin]
Relative body weight [3, 5]: 1.00
Relative body weight [3, 6]: 1.01
Relative body weight [3, 7]: 0.96
Relative body weight [3, 8]: 0.98
Relative tumor volume [4, 5]: 1.00
Relative tumor volume [4, 6]: 1.58
Relative tumor volume [4, 7]: 1.79
Relative tumor volume [4, 8]: 6.08
